Data taken from patent US10273544B2, “Methods for predicting likelihood of responding to treatment” (Dana-Farber Cancer Institute, Inc., priority 2010, dated 2019).

Tests used:
SLCO2B1-312Gln = target: T1, SLCO2B1-312Gln (Homo sapiens, UniProt O94956, R312Q); test: DHEAS uptake assay in LNCaP cells transfected with SLCO2B1-312Gln; details: read-out: best-fit Km for DHEAS uptake; SLCO2B1-312Gln variant, nonlinear regression
T1 sequence (O94956 1-709 R312Q): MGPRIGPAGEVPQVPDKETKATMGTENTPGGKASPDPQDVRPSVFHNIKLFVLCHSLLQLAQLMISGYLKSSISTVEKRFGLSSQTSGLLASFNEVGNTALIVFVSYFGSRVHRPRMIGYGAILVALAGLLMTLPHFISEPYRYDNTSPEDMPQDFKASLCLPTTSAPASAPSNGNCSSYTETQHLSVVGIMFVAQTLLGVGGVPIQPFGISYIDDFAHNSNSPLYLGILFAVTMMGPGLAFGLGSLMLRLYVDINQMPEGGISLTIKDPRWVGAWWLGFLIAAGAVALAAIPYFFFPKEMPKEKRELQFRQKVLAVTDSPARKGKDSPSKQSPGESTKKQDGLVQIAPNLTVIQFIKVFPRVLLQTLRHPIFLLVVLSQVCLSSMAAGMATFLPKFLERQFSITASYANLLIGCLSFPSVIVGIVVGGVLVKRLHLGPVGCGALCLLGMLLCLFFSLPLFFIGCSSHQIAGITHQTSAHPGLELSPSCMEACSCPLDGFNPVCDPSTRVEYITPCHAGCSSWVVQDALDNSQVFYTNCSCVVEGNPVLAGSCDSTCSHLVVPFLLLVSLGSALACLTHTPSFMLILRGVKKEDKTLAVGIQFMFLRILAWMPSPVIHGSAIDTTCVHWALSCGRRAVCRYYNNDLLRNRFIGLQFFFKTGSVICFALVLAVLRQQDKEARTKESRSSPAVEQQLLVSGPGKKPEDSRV
Text: (§1) Two full-length SLCO2B1 cDNAs, SLCO2B1-312Gln (having a G at the position 935) and SLCO2B1-312Arg (having an A at position 935), were cloned into the pCMV6-XL4 vector (OriGene Technologies, Rockville, Md.). The SLCO2B1 935G>A nucleotide exchange was introduced into the cDNA using the QuikChange Site-Directed Mutagenesis kit (Stratagene, La Jolla, Calif.). Primers used for the mutagenesis were 5′-[…]-3′ (SEQ ID NO:1) and 5′-[…]-3′ (SEQ ID NO:2) (underlined sequences encode 312Arg).
(§2) LNCaP cells were maintained in RPMI 1640 supplemented with 10% fetal bovine serum (FBS). Twenty-four hours before transfection, 2×10^5 cells were seeded in 12-well plates using Phenol-Red free RPMI 1640 supplemented with 10% charcoal-stripped FBS. LNCaP cells were transiently transfected with pCMV-SLCO2B1-312Gln, pCMV-SLCO2B1-312Arg, or pCMV6-XL4 empty vector using Lipofectamine^2000 according to the manufacturer's instructions.
(§3) The enzyme immunoassay test is based on the competition that occurs between an unlabeled antigen (present in standards, control and samples) and an enzyme-labeled antigen (conjugate) for a limited number of antibody binding sites on the microwell plate. The sensitivity of the kit is 5 ng/ml.

AR = AR expression by quantitative RT-PCR; format: cell-based; details: LNCaP and LAPC4 cell lines
Description: (§4) Total RNA was isolated from cells using TRIzol reagent (Invitrogen, Carlsbad, Calif.) and then converted to cDNA using High Capacity cDNA Reverse Transcription kit (Applied Biosystems, Foster City, Calif.). The expression levels of SLCO2B1 and GAPDH were measured using a standard TaqMan PCR kit protocol. Experiments were carried out in triplicate for each data point. Real-time PCR primers and probe sets were inventoried products of Applied Biosystem (Assay ID: Hs00200670_m1 and Hs02758991_g1).
(§5) The expression levels of AR and PSA were measured using a standard TaqMan PCR kit protocol (Hs02576345_m1 and Hs00171172_m1) as described in Example 3.

LNCaP cells [1] = test: Cell proliferation, WST-1 assay, LNCaP; format: cell-based; details: 100 μM DHEAS, wild type LNCaP, androgen-depleted medium
Description: Cell proliferation was determined using a WST-1 kit (Roche, Indianapolis, Ind.). […] Tetrazolium salt cell proliferation assay then was carried out at different days after transfection, following the manufacturer's instructions.

PSA = test: AR mediated PSA expression by quantitative RT-PCR; format: cell-based
Description: as §4, §5

SLCO2B1-312Arg = target: T2, SLCO2B1-312Arg (Homo sapiens, UniProt O94956); test: DHEAS uptake assay in LNCaP cells transfected with SLCO2B1-312Arg; details: read-out: best-fit Km for DHEAS uptake; SLCO2B1-312Arg variant, nonlinear regression
T2 sequence (O94956 1-709 R312Q): T1 sequence (O94956 1-709 R312Q)
Text: as §1, §2, §3

LNCaP cells [2] = test: DHEAS uptake assay in LNCaP cells (mock transfected; transfected cells overall); format: cell-based
Description: The sensitivity of the kit is 5 ng/ml. […] Samples were tested in triplicate.

Compound: C[C@]12CC[C@H](OS(=O)(=O)O)CC1=CC[C@@H]1[C@@H]2CC[C@]2(C)C(=O)CC[C@@H]12 [DHEAS, sulfated dehydroepiandrosterone]
- Km (SLCO2B1-312Gln): 17.7 µM
- effect of DHEAS exposure on AR mRNA levels (AR): increased AR mRNA levels
- increase of growth rate (LNCaP cells [1]): about 1.4 fold
- up-regulation of PSA expression, SLCO2B1-Gln cells compared to SLCO2B1-Arg cells (PSA; 100 μM DHEAS, LAPC-4 cells): 1.48 fold
- effect of increasing DHEAS level on PSA expression (PSA; wild type LNCaP and LAPC-4 cell lines and cells transfected with SLCO2B1): up-regulated PSA expression
- Km (SLCO2B1-312Arg): 13.7 µM
- uptake of DHEAS (LNCaP cells [2]; 100 μM DHEAS, pCMV6-XL4 vector (mock) transfected LNCaP cells): 51.66±7.44 pmol/mg protein
- incubation time at which DHEAS uptake reached maximum levels (LNCaP cells [2]; 100 μM DHEAS, various transfected LNCaP cells): 1 h
- DHEAS concentration at which uptake saturation is reached (LNCaP cells [2]; SLCO2B1 variant transfected LNCaP cells): 60 to 100 µM
